Results as given in US7186722B2, “2-heteroaryl-3,4-dihydro-2h-pyrrole derivatives and the use thereof as pesticides” (Bayer Cropscience AG, priority 2001, dated 2007).

Columns and labels:
Format in all cases: in vivo
[1] = system: peach aphid (Myzus persicae); assay: Myzus Test; details: 1000 ppm, cabbage leaves dipped
Procedure: • Solvent: 7 parts by weight of dimethylformamide • Emulsifier: 1 part by weight of alkylaryl polyglycol ether
(§1) To produce a suitable preparation of active compound, 1 part by weight of active compound is mixed with the stated amounts of solvent and emulsifier, and the concentrate is diluted with emulsifier-containing water to the desired concentration.
Cabbage leaves (Brassica oleracea) which are heavily infested by the peach aphid (Myzus persicae) are treated by being dipped into the preparation of active compound of the desired concentration.
After the desired period of time, the kill in % is determined. 100% means that all aphids have been killed; 0% means that none of the aphids have been killed.

[2] = system: caterpillars of the diamond back moth (Plutella xylostella); assay: Plutella Test; details: 8 ppm, cabbage leaves dipped
Procedure: (§2) • Solvent: 30 parts by weight of dimethylformamide • Emulsifier: 1 part by weight of alkylaryl polyglycol ether
as §1
Cabbage leaves (Brassica oleracea) are treated by being dipped into the preparation of active compound of the desired concentration and are populated with caterpillars of the diamond back moth (Plutella xylostella) while the leaves are still moist.
After the desired period of time, the kill in % is determined. 100% means that all caterpillars have been killed; 0% means that none of the caterpillars have been killed.

[3] = system: greenhouse red spider mite (Tetranychus urticae); assay: Tetranychus Test (OP-resistent/dip treatment); details: 500 ppm, bean plants dipped, OP-resistent
Procedure: Tetranychus Test (OP-Resistent/Dip Treatment)
as §2, §1
Bean plants (Phaseolus vulgaris) which are heavily infested by all stages of the greenhouse red spider mite (Tetranychus urticae) are dipped into a preparation of active compound of the desired concentration.
After the desired period of time, the effect in % is determined. 100% means that all spider mites have been killed; 0% means that none of the spider mites have been killed.

SMILES: Fc1cccc(F)c1C1=NC(c2cc3ccccc3s2)CC1 (stereo not drawn) [drawing 86]
- Kill rate in % after 6 d [1]: 95%

SMILES: Fc1cccc(F)c1C1=NC(c2ccc(-c3ccc(OC(F)(F)F)cc3)s2)CC1 (stereo not drawn) [drawing 90]
- Kill rate in % after 6 d [2]: 90%

SMILES: Fc1cccc(F)c1C1=NC(c2cc3sc(-c4ccc(OC(F)(F)F)cc4)cc3s2)CC1 (stereo not drawn) [drawing 97]
- Kill rate in % after 7 d [3]: 80%
